Assay results as given in patent US6706740B2, “Fungicidal heterocyclic aromatic amides and their compositions, methods of use and preparation” (Dow AgroSciences LLC, priority 1999, dated 2004).
Where two headings read alike, the source gives them in different places.

How the values were obtained:
[1] = test system: Phytophthora infestans—PHYTIN; assay: whole plant or invertebrate; format: in vivo; settings: Phytophthora, in Solanum lycopersicum, 24 h, read-out: PHYTIN in vivo 1 Day Protectant
[2] = test system: Mycosphaerella graminicola (Septoria tritici—SEPTTR); assay: In vitro fungal growth inhibition, Mycosphaerella graminicola (SEPTTR); format: cell-based; settings: Zymoseptoria tritici, read-out: SEPTTR in vitro Growth Inhibition
[3] = test system: Leptosphaeria nodorum—LEPTNO; assay: Glume Blotch of Wheat, in vivo whole plant, 24 Hour Protectant; settings: Leptosphaeria, control of fungal infection vs untreated plants, read-out: LEPTNO in vivo 1 Day Protectant
[4] = test system: Septoria tritici—SEPTTR; assay: Leaf Blotch of Wheat, in vivo whole plant, 24 Hour Protectant; settings: Zymoseptoria tritici, 24 h, control of fungal infection vs untreated plants, read-out: SEPTTR in vivo 1 Day Protectant
[5] = test system: Phytophthora infestans (PHYTIN); assay: microbe, parasite or virus in culture; format: cell-based; settings: Phytophthora infestans, read-out: PHYTIN in vitro Growth Inhibition
[6] = test system: Ustilago maydis (USTIMA); assay: microbe, parasite or virus in culture; format: cell-based; settings: Mycosarcoma maydis, read-out: USTIMA in vitro Growth Inhibition
[7] = test system: Stagonospora nodorum (Leptosphaeria nodorum—LEPTNO); assay: In vitro fungal growth inhibition, Stagonospora nodorum (LEPTNO); format: cell-based; settings: Leptosphaeria, read-out: LEPTNO in vitro Growth Inhibition
[8] = test system: Puccinia recondita—PUCCRT; assay: Brown Rust of Wheat, in vivo whole plant, 24 Hour Protectant; settings: control of fungal infection vs untreated plants; for pest or weed control at 100 ppm: Puccinia, read-out: PUCCRT in vivo 1 Day Protectant
[9] = test system: Rhizoctonia solani (RHIZSO); assay: microbe, parasite or virus in culture; format: cell-based; settings: Rhizoctonia solani, read-out: RHIZSO in vitro Growth Inhibition
[10] = test system: Erysiphe graminis—ERYSGT; assay: Powdery Mildew of Wheat, in vivo whole plant, 24 Hour Protectant; settings: Erysiphe, control of fungal infection vs untreated plants, read-out: ERYSGT in vivo 1 Day Protectant
[11] = test system: Magnaporthe grisea (Pyricularia oryzae—PYRIOR); assay: microbe, parasite or virus in culture; format: cell-based; settings: Pyricularia oryzae, read-out: PYRIOR in vitro Growth Inhibition
[12] = wheat plants sprayed at 100 ppm, inoculated after 24 hours
[13] = 100 ppm spray, 24 hour protectant, wheat
[14] = 100 ppm spray, wheat, 24 hour protectant

| Structure (SMILES) | pest or weed control at 100 ppm [1] [%] | inhibition at 25 ppm ([2]; 25 ppm in the growth medium) [%] | pest or weed control at 100 ppm [3, 12] [%] | melting point | pest or weed control at 100 ppm [4, 12] [%] | inhibition at 25 ppm [5] [%] | inhibition at 25 ppm [6] [%] | inhibition at 25 ppm ([7]; 25 ppm in the growth medium) [%] | pest or weed control at 100 ppm [8, 12] [%] | inhibition at 25 ppm [9] [%] | pest or weed control at 100 ppm [10, 12] [%] | inhibition at 25 ppm [11] [%] | also measured |
| --- | --- | --- | --- | --- | --- | --- | --- | --- | --- | --- | --- | --- | --- |
| Cc1ncc(C(=O)N[C@H]2COC(=O)[C@H](Cc3ccccc3)[C@@H](OC(=O)C(C)C)[C@H](C)OC2=O)c(O)n1 [Compound 542] | < 25 | < 80 | < 25 | 220 °C (dec.) | 25 to 74 | < 80 | < 80 | < 80 | < 25 | < 80 | < 25 | < 80 |  |
| COc1ccnc(C(=O)Nc2ccc(Oc3cc(Cl)nc(C(F)(F)F)c3)cc2)c1O [Compound 467] | < 25 | < 80 | 25 to 74 | 198 to 201 °C | 25 to 74 | < 80 | < 80 | > 80 | < 25 | < 80 | 25 to 74 | < 80 |  |
| CCOc1ccnc(C(=O)NC2CC(C)(C)CC(C)(C)C2)c1O [Compound 474] | < 25 | < 80 | 25 to 74 | 107 to 110 °C | < 25 | < 80 | < 80 | < 80 | 25 to 74 | < 80 | < 25 | < 80 |  |
| Cc1ccnc(C(=O)N[C@H]2COC(=O)[C@H](Cc3ccccc3)[C@@H](OC(=O)C(C)C)[C@H](C)OC2=O)c1OC(=O)C(C)C [Compound 572] | < 25 | < 80 | 25 to 74 | 163 to 166 °C | 25 to 74 | < 80 | < 80 | < 80 |  | < 80 | < 25 | < 80 | PUCCRT in vivo 1 Day Protectant [8, 12]: + + |
| COc1ccnc(C(=O)NC2CC(C)(C)C(OC(=O)c3ccccc3)C(C)(C)C2)c1O (stereo not drawn) [Compound 268] | < 25 |  |  | 175 to 200 °C |  | > 80 | < 80 |  |  | < 80 |  | < 80 | inhibition at 25 ppm ([2]; 25 ppm in growth medium): < 80%; pest or weed control at 100 ppm [3, 13]: 25 to 74%; pest or weed control at 100 ppm [4, 13]: 25 to 74%; inhibition at 25 ppm ([7]; 25 ppm in growth medium): > 80%; pest or weed control at 100 ppm [8, 13]: 25 to 74%; pest or weed control at 100 ppm [10, 13]: < 25% |
| CC(C)C(=O)O[C@H]1[C@H](C)OC(=O)[C@@H](NC(=O)c2cnccc2O)COC(=O)[C@@H]1Cc1ccccc1 [Compound 503] | < 25 | > 80 | 25 to 74 | 213 to 215 °C (dec.) | < 25 | < 80 | < 80 | > 80 | 25 to 74 | < 80 | 25 to 74 | < 80 |  |
| Cc1ccc(C(=O)NC2CC(C)(C)CC(C)(C)C2)c(O)n1 [Compound 524] | < 25 | < 80 | < 25 | 307 to 308 °C | 25 to 74 | < 80 | < 80 | < 80 | < 25 | < 80 | < 25 | < 80 |  |
| CC1(C)CC(NC(=O)c2cscc2O)CC(C)(C)C1 [Compound 554, 4-HYDROXYTHIOPHENE-N-(3,3,5,5-TETRAMETHYLCYCLOHEXYL)-3-CARBOXAMIDE] | < 25 | < 80 | 25 to 74 | 170 to 174 °C | 25 to 74 | > 80 | < 80 | > 80 | 25 to 74 | < 80 | < 25 | > 80 |  |
| CC(=O)OC1CCC(NC(=O)c2ncccc2O)CC1 (stereo not drawn) [Compound 209] | < 25 |  |  | 123 to 126 °C |  | < 80 | < 80 |  |  | < 80 |  | < 80 | inhibition at 25 ppm ([2]; 25 ppm in growth medium): < 80%; pest or weed control at 100 ppm [3, 13]: < 25%; pest or weed control at 100 ppm [4, 13]: 25 to 74%; inhibition at 25 ppm ([7]; 25 ppm in growth medium): < 80%; pest or weed control at 100 ppm [8, 13]: < 25%; pest or weed control at 100 ppm [10, 13]: < 25% |
| O=C(NCCc1ccc(Cl)cc1)c1cccnc1O [Compound 518] | 25 to 74 | < 80 | < 25 | 219 to 221 °C | < 25 | < 80 | < 80 | < 80 | < 25 | < 80 | < 25 | < 80 |  |
| COc1ccnc(C(=O)NC2CC3OC2C(C)C(OC(=O)C(C)C)C3C)c1O (stereo not drawn) [Compound 320] | < 25 |  |  | 108.5 to 109.5 °C |  | < 80 | < 80 |  |  | < 80 |  | < 80 | inhibition at 25 ppm ([2]; 25 ppm in growth medium): < 80%; pest or weed control at 100 ppm [3, 13]: 25 to 74%; pest or weed control at 100 ppm [4, 13]: 25 to 74%; inhibition at 25 ppm ([7]; 25 ppm in growth medium): < 80%; pest or weed control at 100 ppm [8, 13]: < 25%; pest or weed control at 100 ppm [10, 13]: < 25% |
| CC(C)C(=O)O[C@H]1[C@H](C)OC(=O)[C@@H](NC(=O)c2cn(C)nc2O)COC(=O)[C@@H]1Cc1ccccc1 [Compound 558] | < 25 | < 80 | 25 to 74 | 199 to 205 °C | 25 to 74 | < 80 | < 80 | < 80 | 25 to 74 | < 80 | < 25 | < 80 |  |
| COc1ccnc(C(=O)Nc2cccc(OC3CC(C)(C)OC(C)(C)C3)c2)c1O [Compound 460] | < 25 |  |  | 149 to 153 °C |  | < 80 | < 80 |  |  | < 80 |  | < 80 | inhibition at 25 ppm ([2]; 25 ppm in growth medium): < 80%; pest or weed control at 100 ppm [3, 14]: 25 to 74%; pest or weed control at 100 ppm [4, 14]: 25 to 74%; inhibition at 25 ppm ([7]; 25 ppm in growth medium): < 80%; pest or weed control at 100 ppm [8, 14]: 25 to 74%; pest or weed control at 100 ppm [10, 14]: 25 to 74% |
| COc1ccnc(C(=O)Nc2ccc(Oc3cccc(C(F)(F)F)n3)cc2)c1O [Compound 463] | < 25 | < 80 | < 25 | 140 to 141.5 °C | 25 to 74 | < 80 | < 80 | < 80 | < 25 | < 80 | < 25 | < 80 |  |
